Source: paper PMC3920638, “The Development of Selective Inhibitors of NagZ: Increased Susceptibility of Gram-Negative Bacteria to β-Lactams” (Chembiochem, 2013)
≈ marks a conversion by molar mass, not a printed value. Read-outs that look alike come from different tables or passages of the source.

What was measured:
O-GlcNAcase (OGA) = target: T1, O-GlcNAcase (OGA) (Homo sapiens, UniProt O60502); experiment: Kinetic analysis of inhibitors against O-GlcNAcase; assay type: biochemical
T1 sequence (O60502 1-916): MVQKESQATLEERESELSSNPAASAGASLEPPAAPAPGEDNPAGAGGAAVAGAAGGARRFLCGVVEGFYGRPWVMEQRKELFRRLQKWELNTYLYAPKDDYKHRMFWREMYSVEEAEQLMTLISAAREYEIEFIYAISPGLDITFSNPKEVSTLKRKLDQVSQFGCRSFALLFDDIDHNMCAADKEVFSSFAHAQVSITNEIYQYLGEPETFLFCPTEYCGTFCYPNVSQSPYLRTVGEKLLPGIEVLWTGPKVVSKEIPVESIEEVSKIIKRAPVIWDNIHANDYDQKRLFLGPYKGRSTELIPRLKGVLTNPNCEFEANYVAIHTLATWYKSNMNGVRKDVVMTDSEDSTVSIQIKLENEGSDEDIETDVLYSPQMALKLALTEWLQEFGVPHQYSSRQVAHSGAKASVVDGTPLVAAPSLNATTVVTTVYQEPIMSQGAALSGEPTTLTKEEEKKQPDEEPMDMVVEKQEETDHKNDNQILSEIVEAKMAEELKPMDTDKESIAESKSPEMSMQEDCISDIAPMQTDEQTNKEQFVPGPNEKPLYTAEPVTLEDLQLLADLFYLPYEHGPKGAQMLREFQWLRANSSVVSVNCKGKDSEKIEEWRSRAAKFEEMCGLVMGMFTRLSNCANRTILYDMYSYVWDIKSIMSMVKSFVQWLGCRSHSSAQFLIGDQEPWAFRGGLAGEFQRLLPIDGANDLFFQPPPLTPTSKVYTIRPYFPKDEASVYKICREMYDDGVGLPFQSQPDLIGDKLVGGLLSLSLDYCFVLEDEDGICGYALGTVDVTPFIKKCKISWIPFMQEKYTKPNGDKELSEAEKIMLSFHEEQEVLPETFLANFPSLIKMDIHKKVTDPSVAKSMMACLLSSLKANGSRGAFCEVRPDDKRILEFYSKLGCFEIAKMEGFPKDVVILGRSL
Method: (§1) Kinetic analysis of inhibitors: Assays against O-GlcNAcase, VcNagZ and StNagZ were performed in NaPi buffer (50 mM, NaCl (100 mM), pH 6.5) and for β-hexosaminidase B citrate buffer (50 mM, NaCl (100 mM), pH 4.25) using 4-methylumbelliferyl N-acetyl-β-D-glucosaminide as substrate. For NAGLU, assays were performed in acetate buffer (100 mM, pH 4.3), containing bovine serum albumin (0.5 mgmL^−1) using 4-methylumbelliferyl N-acetyl-α-D-glucosaminide as substrate. Release of 4-methylumbelliferone was monitored continuously using a fluorimeter plate reader for OGA, VcNagZ and StNagZ, and a 30 min stopped-assay procedure was used for β-hexosaminidase B and NAGLU (quenched with fourfold excess of quenching buffer, glycine (200 mM), pH 10.75). For OGA, the inhibitors were preincubated with the enzyme for 10 min before the addition of the substrate. Readings were taken at excitation and emission wavelengths of 368 nm and 450 nm respectively. […] Inhibitors were added at a range of concentrations encompassing their Ki values. The rates at each inhibitor concentration were plotted and the best fit line through the points ascertained. The −1/Ki was taken as the point where the line of best fit intersected with 1/Vmax.

β-hexosaminidase B = target: T2, β-hexosaminidase B (Homo sapiens, UniProt P07686); experiment: Kinetic analysis of inhibitors against β-hexosaminidase B; assay type: biochemical
T2 sequence (P07686 122-556): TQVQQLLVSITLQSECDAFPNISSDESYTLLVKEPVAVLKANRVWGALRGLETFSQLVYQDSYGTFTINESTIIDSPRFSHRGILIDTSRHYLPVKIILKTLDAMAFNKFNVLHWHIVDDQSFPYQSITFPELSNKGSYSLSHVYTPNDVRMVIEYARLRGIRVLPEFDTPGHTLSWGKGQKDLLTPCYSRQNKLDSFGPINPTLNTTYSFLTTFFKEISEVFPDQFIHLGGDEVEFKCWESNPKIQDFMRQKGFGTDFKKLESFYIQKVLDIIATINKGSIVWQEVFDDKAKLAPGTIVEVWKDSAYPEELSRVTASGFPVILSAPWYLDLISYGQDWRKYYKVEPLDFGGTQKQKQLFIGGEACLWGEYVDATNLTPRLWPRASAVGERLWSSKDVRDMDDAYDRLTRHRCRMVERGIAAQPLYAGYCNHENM
Method: as §1

NAGLU [1] = target: T3, NAGLU (Homo sapiens, UniProt P54802); experiment: Kinetic analysis of inhibitors against NAGLU; assay type: biochemical
T3 sequence (P54802 24-743): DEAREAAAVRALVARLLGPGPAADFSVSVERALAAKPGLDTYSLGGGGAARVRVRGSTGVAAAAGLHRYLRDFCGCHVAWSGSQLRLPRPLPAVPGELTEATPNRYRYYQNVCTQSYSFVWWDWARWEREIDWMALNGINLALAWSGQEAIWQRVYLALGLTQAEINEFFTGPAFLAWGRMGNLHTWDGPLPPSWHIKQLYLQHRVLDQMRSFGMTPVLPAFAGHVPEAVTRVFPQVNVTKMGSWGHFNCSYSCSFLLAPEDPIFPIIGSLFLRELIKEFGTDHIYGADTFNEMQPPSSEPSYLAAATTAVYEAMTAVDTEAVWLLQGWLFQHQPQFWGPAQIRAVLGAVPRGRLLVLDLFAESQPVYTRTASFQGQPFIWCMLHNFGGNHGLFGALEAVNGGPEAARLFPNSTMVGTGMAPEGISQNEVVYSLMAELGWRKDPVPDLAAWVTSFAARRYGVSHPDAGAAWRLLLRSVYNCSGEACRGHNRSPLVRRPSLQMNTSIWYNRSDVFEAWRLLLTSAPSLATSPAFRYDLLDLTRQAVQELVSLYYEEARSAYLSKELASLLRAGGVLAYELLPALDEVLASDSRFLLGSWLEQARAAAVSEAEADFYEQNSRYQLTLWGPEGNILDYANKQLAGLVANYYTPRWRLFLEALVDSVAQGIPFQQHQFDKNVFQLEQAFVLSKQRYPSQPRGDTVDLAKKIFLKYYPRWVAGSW
Method: as §1

VcNagZ = target: T4, VcNagZ (Vibrio cholerae serotype O1, UniProt Q9KU37); experiment: Kinetic analysis of inhibitors against VcNagZ; assay type: biochemical; details: for S.R. (Ki OGA/Ki VcNagZ): selectivity ratio
T4 sequence (Q9KU37 1-330): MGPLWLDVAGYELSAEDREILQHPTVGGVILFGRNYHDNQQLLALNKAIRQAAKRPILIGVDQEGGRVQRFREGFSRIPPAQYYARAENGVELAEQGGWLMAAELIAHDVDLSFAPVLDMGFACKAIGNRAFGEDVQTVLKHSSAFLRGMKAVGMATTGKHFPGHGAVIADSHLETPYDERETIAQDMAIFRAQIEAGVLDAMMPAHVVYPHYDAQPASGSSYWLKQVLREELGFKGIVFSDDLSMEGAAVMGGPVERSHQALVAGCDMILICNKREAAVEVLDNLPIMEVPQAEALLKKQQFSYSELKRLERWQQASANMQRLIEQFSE
Method: as §1

StNagZ = target: T5, StNagZ (Salmonella typhimurium, UniProt Q8ZQ06); experiment: Kinetic analysis of inhibitors against StNagZ; assay type: biochemical; details: for S.R. (Ki OGA/Ki StNagZ): selectivity ratio
T5 construct: made in house

P. aeruginosa PA01 [2] = experiment: Agar diffusion test; assay type: cell-based, Pseudomonas aeruginosa; details: 6 mm filter disks loaded with 30 μg of antibiotic, incubation overnight
P. aeruginosa PA01 [3] = experiment: Minimal inhibitory concentration of β-lactams by serial dilution; details: Pseudomonas aeruginosa, PA01, 18 h, standard serial dilution, 18 h at 37°C
Method: Determination of the Minimal Inhibitory Concentration of β-lactams: Cultures were prepared by inoculating Mueller–Hinton broth (5 mL) with a small amount of a glycerol stock of P. aeruginosa PA01 and then were grown at 37°C to an OD600 value of ≈0.5. 96-well plates containing a range of concentrations of β-lactams varying by factors of 2 were prepared. […] These broths were inoculated with the culture (100 μL) and allowed to incubate at 37°C for 18 h. […] All MIC determinations were performed in triplicate.

NAGLU [4] = target: T3, NAGLU; design: method as in PMID 10833408; details: read-out: NAGLU Ki; literature value; cited from earlier work
P. aeruginosa PA01 [5] = experiment: Control: 21 alone as inhibitor of bacterial growth; assay type: cell-based, Pseudomonas aeruginosa; details: up to 1 mM (data not shown)
Source text: . […] Of note is that the concentration of 21 required to give rise to the increased susceptibility observed is fivefold less than the concentration of the PUGNAc analogue O-(2-deoxy-2-N-2-ethylbutyryl-D-glucopyranosylidene)amino N-phenylcarbamate (EtBuPUG) used previously to induce a similar effect.[23]

[6] = +21 (20 μL of 1 mM in H2O per well)

| SMILES | Ki (O-GlcNAcase (OGA)) | Ki (β-hexosaminidase B) | Ki (NAGLU [1]) | Ki (VcNagZ) | S.R. (Ki OGA/Ki VcNagZ) (VcNagZ) | Ki (StNagZ) | S.R. (Ki OGA/Ki StNagZ) (StNagZ) | Clearing radius (P. aeruginosa PA01 [2]; +21) | Clearing radius (P. aeruginosa PA01 [2]; −21) | MIC (P. aeruginosa PA01 [3]; [6]) | MIC (P. aeruginosa PA01 [3]; −21) | Ki (NAGLU [4]) | effect on bacterial growth rates (P. aeruginosa PA01 [5]) |
| --- | --- | --- | --- | --- | --- | --- | --- | --- | --- | --- | --- | --- | --- |
| CC(C)CC(=O)N[C@H]1CN[C@H](CO)[C@@H](O)[C@@H]1O [Compound 25, 1,5-Imino-2-isovaleramido-1,2,5-trideoxy-D-glucitol] | > 1000 µM | > 5000 µM | > 1000 µM | 555 µM | >1.8 | 294 µM | >3.4 | – | – | – | – | – | – |
| CC(C)(O/N=C(\C(=O)N[C@@H]1C(=O)N2C(C(=O)[O-])=C(C[n+]3ccccc3)CS[C@H]12)c1csc(N)n1)C(=O)O [Ceftazidime, ceftazidime] | – | – | – | – | – | – | – | 14.3 mm | 12.2 mm | 0.5 µg/mL (≈ 0.915 µM) | 2 µg/mL (≈ 3.66 µM) | – | – |
| CCCCCC(=O)N[C@H]1CN[C@H](CO)[C@@H](O)[C@@H]1O [Compound 23, 2-Hexamido-1,5-imino-1,2,5-trideoxy-D-glucitol] | > 1000 µM | > 5000 µM | > 1000 µM | 1130 µM | >0.9 | 102 µM | >10 | – | – | – | – | – | – |
| CC(=O)N[C@H]1CN[C@H](CO)[C@@H](O)[C@@H]1O [Compound 1, 2-Acetamido-1,5-imino-1,2,5-trideoxy-D-glucitol] | 23 µM | – | – | 8.5 µM | 2.8 | 25.2 µM | 0.94 | – | – | – | – | 0.45 µM | – |
| CCCC(=O)N[C@H]1CN[C@H](CO)[C@@H](O)[C@@H]1O [Compound 21, 2-Butamido-1,5-imino-1,2,5-trideoxy-D-glucitol] | > 500 µM | 1460 µM | > 1000 µM | 9.4 µM | >53 | – | >22 | – | – | – | – | – | no differences in growth rates |
| CCC(=O)N[C@H]1CN[C@H](CO)[C@@H](O)[C@@H]1O [Compound 20, 1,5-Imino-2-propamido-1,2,5-trideoxy-D-glucitol] | 130 µM | 61 µM | 96 µM | 4.2 µM | 31 | 45.4 µM | 2.9 | – | – | – | – | – | – |
| C[C@@H](O)[C@H]1C(=O)N2C(C(=O)O)=C(SCCN=CN)C[C@H]12 [Imipenem, imipenem] | – | – | – | – | – | – | – | 13.3 mm | 11.9 mm | 4 µg/mL (≈ 13.4 µM) | 8 µg/mL (≈ 26.7 µM) | – | – |
| CO[C@@]1(NC(=O)Cc2cccs2)C(=O)N2C(C(=O)O)=C(COC(N)=O)CS[C@@H]21 [Cefoxitin, cefoxitin] | – | – | – | – | – | – | – | – | – | 512 µg/mL (≈ 1200 µM) | 2050 µg/mL (≈ 4790 µM) | – | – |
| CC(C)C(=O)N[C@H]1CN[C@H](CO)[C@@H](O)[C@@H]1O [Compound 24, 1,5-Imino-2-isobutamido-1,2,5-trideoxy-D-glucitol] | > 1000 µM | 670 µM | 800 µM | 15.8 µM | – | 24.6 µM | >40 | – | – | – | – | – | – |
| CCCCC(=O)N[C@H]1CN[C@H](CO)[C@@H](O)[C@@H]1O [Compound 22, 1,5-Imino-1,2,5-trideoxy-2-valeramido-D-glucitol] | > 1000 µM | > 5000 µM | > 1000 µM | 110 µM | >9 | 47.3 µM | >21 | – | – | – | – | – | – |
| CC1(C)S[C@@H]2[C@H](NC(=O)[C@H](N)c3ccccc3)C(=O)N2[C@H]1C(=O)O [Ampicillin, ampicillin] | – | – | – | – | – | – | – | – | – | 128 µg/mL (≈ 366 µM) | 512 µg/mL (≈ 1470 µM) | – | – |
| C[C@H]1[C@H](NC(=O)/C(=N\OC(C)(C)C(=O)O)c2csc(N)n2)C(=O)N1S(=O)(=O)O [Aztreonam, aztreonam] | – | – | – | – | – | – | – | – | – | 0.5 µg/mL (≈ 1.15 µM) | 1 µg/mL (≈ 2.3 µM) | – | – |
